This assay deals with T1, oxytocin receptor (CHO-OTR/NFAT-β-Lactamase cells) (Homo sapiens, UniProt P30559).
T1 construct: expressed in transfected cells; host or cells: CHO-OTR cell line, further transfected with the NFAT-β-lactamase reporter construct
T1 sequence (P30559 1-389): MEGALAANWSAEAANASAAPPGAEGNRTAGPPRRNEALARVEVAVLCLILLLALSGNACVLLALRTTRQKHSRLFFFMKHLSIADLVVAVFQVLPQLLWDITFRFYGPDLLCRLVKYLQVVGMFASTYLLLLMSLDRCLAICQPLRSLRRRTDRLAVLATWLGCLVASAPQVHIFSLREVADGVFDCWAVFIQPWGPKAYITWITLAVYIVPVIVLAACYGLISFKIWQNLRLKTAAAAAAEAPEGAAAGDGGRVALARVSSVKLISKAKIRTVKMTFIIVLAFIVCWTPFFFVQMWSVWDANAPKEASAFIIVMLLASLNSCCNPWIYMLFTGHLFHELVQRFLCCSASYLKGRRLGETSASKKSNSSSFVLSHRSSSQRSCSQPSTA
As to the kind of experiment: Oxytocin Receptor Beta-Lactamase Assay. In kind it is cell-based. The note with it: oxytocin antagonist activity, n=3. As for the experimental part:
A suitable assay for determining the oxytocin antagonist activity of a compound is detailed herein below.
Oxytocin Receptor Beta-Lactamase Assay
Cells used are CHO-OTR/NFAT-β-Lactamase. The NFAT-β-lactamase expression construct was transfected into the CHO-OTR cell line and clonal populations were isolated via fluorescence activated cell sorting (FACS). An appropriate clone was selected to develop the assay. […]
Cells grown at 80-90% confluence were harvested and counted. […]
Preparation of 1 ml of 6× Loading Buffer with Enhanced Loading Protocol (this requires scale-up according to number of plates to be screened) • 12 μl of solution A (1 mM CCF4-AM in Dry DMSO) was added to 60 μl of solution B (100 mg/ml Pluronic-F127 in DMSO+0.1% Acetic Acid) and vortexed. • The resulting solution was added to […] of solution C (24% w/w PEG400, 18% TR40 v/v in water). • 75 μl of solution D was added (200 mM probenecid in 200 mM NaOH). • 10 μl of 6× Loading Buffer was added to all wells and incubated for 1.5 hrs-2 hrs at room temperature in the dark. • The plates were read using an LJL Analyst, Excitation 405 nm, Emission 450 nm and 530 nm, gain optimal, lagtime 0.40 μs integration, 4 flashes, bottom reading.

As usually defined, the Ki is a measure of affinity in units of concentration, obtained from inhibition or displacement.

Regarding `COc1ccc(-n2c(C)nnc2-c2cnc(-c3ccc(F)cc3Cl)cn2)cn1` [Example 1, 2-(2-Chloro-4-fluoro-phenyl)-5-[4-(6-methoxy-pyridin-3-yl)-5-methyl-4H-[1,2,4]triazol-3-yl]-pyrazine], the affinity, expressed as Ki, was 5.4 nM.

Source of the values: patent US7618972B2, “Substituted triazole derivatives as oxytocin antagonists” (Pfizer Inc, priority 2005, dated 2009).
